The values below come from patent publication US10143700B2, “Nanoparticle formulations for delivering multiple therapeutic agents” (Amrita Vishwa Vidyapeetham University, priority 2013, dated 2018).

The test system of one data set is TfR. Description: Transferrin receptor expression in HepG2 cells by flow cytometry. It is filed as cell-based. The protocol: Transferrin receptor expression and cellular uptake: In the next step, the expression of TfR in HepG2 cells was studied using flow cytometry. […] After creating an iron deficient microenvironment by treating the cells with 100 μM DFO, the number of the TfR-expressing cells increased to ˜89% (FIG. 13C). […] Following that, intracellular uptake of the core-shell nanoparticles in cancer cells was investigated. […] After creating iron-deficient microenvironment, the uptake was further increased to ˜94% (FIG. 13G) due to the increase in the number of TfRexpressing cells. Upon addition of iron-loaded transferrin, the uptake was dropped to ˜69% due to the saturation of TfR expression in these cells (FIG. 13H).

Another data set relates to HepG2 cells. Description: Annexin V/PI apoptosis assay (confocal imaging and flow cytometry). It is filed as cell-based. The conditions noted are these: for apoptosis (apoptotic cells by flow cytometry): 5 μM sorafenib and/or 0.5 μM Dox. The protocol: Apoptosis studies: In the next step, the mode of cell death using Annexin V/PI apoptosis assay was investigated. […] The apoptotic cells using flow cytometry were also quantified. […] Even after combining both the drugs (5 μM sorafenib (5S) with 0.5 μM Dox (0.5D)), a maximum of only ˜60% apoptosis was registered (FIG. 15D). In contrast, as separate nanoformulations, the nano-shell (containing 5 μM sorafenib, (5AST)) (FIG. 15F), and the nano-core (containing 0.5 μM Dox, (0.5PD)) (FIG. 15G) have shown slight improvement in apoptosis (˜39% by shell, and ˜61% by core). After combining the two in a core-shell targeted fashion, excellent apoptosis was registered in ˜91% cells (FIG. 15H).
Background: Flow cytometry measures light scatter and fluorescence of single cells or particles in a stream.

With `CC(=O)N(O)CCCCCNC(=O)CCC(=O)N(O)CCCCCNC(=O)CCC(=O)N(O)CCCCCN` [DFO], the “number of TfR-expressing cells” value with TfR (HepG2 cells treated with 100 μM DFO (iron deficient microenvironment), ~76% before iron chelation) was roughly 89%. Further, the “viability of TfR overexpressing cells” value in the data set with HepG2 cells (pretreatment with 100 μM DFO, FIG. 15E) was “did not affect the viability”.
`COc1cccc2c1C(=O)c1c(O)c3c(c(O)c1C2=O)C[C@@](O)(C(=O)CO)C[C@@H]3O[C@H]1C[C@H](N)[C@H](O)[C@H](C)O1` [Dox, doxorubicin]: the “apoptosis (apoptotic cells by flow cytometry)” value in the data set with HepG2 cells was roughly 53%.
Consider `CNC(=O)c1cc(Oc2ccc(NC(=O)Nc3ccc(Cl)c(C(F)(F)F)c3)cc2)ccn1` [sorafenib], for which the “apoptosis (apoptotic cells by flow cytometry)” value in the data set on HepG2 cells is given as roughly 38%.
As for “holotransferrin: iron-loaded transferrin”, the “number of TfR-expressing cells” value in the data set on TfR (HepG2 cells, upon addition of iron-loaded transferrin (holotransferrin)) is roughly 42%.
